The values below come from publication PMC4111244 (Bioorganic & medicinal chemistry letters, 2013).

Assay [1] concerns T. cruzi amastigotes. Put plainly: Activity against T. cruzi amastigotes in culture. The format is cell-based, Trypanosoma cruzi. As to conditions: for fold increase in potency compared with compound 12: T. cruzi cultures; for EC50: Trypanosoma cruzi, read-out: T. cruzi EC50(nM), T. cruzi amastigotes in culture; for fold drop in potency on replacement of the aniline moiety: versus amino compound (compound 2).

The subject of assay [2] is T. cruzi. Particulars: ref previous studies; cited from earlier work.
For assay [3], the target named is T. cruzi sterol 14α-demethylase (CYP51) (Trypanosoma cruzi, UniProt Q7Z1V1). In words: Spectral response. As to conditions: P450 2.2 μM; titration range 0.4-7.6 μM.
For assay [4], the system named is T. cruzi amastigotes. Particulars: read-out: EC50 against T.cruzi in culture; cited from earlier work.

Like-named read-outs stand apart in the source and are kept apart here. Where only a bound is given, the exact number is not on record here.

T. cruzi sterol 14α-demethylase (CYP51), sequence (Q7Z1V1 whole entry): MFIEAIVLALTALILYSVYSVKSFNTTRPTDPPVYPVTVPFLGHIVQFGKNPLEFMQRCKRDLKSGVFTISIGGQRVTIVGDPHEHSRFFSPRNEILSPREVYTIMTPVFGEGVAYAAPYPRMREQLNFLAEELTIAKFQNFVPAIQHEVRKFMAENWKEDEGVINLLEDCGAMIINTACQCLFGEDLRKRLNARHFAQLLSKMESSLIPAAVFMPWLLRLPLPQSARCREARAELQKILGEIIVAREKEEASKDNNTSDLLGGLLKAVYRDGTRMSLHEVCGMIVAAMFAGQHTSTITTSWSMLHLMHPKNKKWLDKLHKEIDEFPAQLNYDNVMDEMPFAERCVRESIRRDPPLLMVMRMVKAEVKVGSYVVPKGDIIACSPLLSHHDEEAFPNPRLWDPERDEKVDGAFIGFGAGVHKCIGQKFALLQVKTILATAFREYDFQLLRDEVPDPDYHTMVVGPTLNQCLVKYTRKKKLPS

For `Nc1cc(-c2ccccc2)ccc1Cn1cncc1CNc1ccc(-c2nc3ccccc3s2)c(-c2ccccc2)c1` [Compound 2], in assay [1] (versus compound 12), the “fold increase in potency compared with compound 12” value is listed as 20 fold. For the same compound, the “efficacy in the acute model of the disease” value in assay [2] is “highly efficacious”.

In the case of `Nc1ccc(-c2cc(NCc3cncn3Cc3ccc(-c4ccccc4)cc3)ccc2-c2nc3ccccc3s2)cc1` [Compound 12k], in assay [1] (versus compound 12), the “fold increase in potency compared with compound 12” value is given as above 10 fold.

In general, EC50 refers to the concentration needed to bring the measured effect to its halfway point. For `Fc1cc(-c2ccccc2)ccc1Cn1cncc1CNc1ccc(F)c(-c2ccccc2)c1` [Compound 24a], the concentration giving a half-maximal response (EC50) in assay [1] is below 20 nM.

In the case of `Fc1ccc(NCc2cncn2Cc2ccc(-c3ccccc3)cc2F)cc1` [Compound 24b], the “fold drop in potency compared with compound 12” value in assay [1] (against T. cruzi, versus compound 12) is “less than 4 fold”.

On to `COc1cc(-c2ccccc2)ccc1Cn1cncc1CNc1ccc(Cl)c(-c2ccccc2)c1` [Compound 24n], for which the “fold drop in potency on replacement of the aniline moiety” value (from here on “fold drop in potency on replacement”) in assay [1] was above 27 fold.

`Oc1cc(-c2ccccc2)ccc1Cn1cncc1CNc1ccc(Cl)c(-c2ccccc2)c1` [Compound 24o]: in assay [1], the “fold drop in potency on replacement” value is reported as above 27 fold.

Regarding `O=C(O)c1cc(-c2ccccc2)ccc1Cn1cncc1CNc1ccc(-c2nc3ccccc3s2)c(-c2ccccc2)c1` [Compound 24q], in assay [1], the “fold drop in potency on replacement” value was above 27 fold.

In the case of `COc1ccc(NCc2cncn2Cc2ccc(-c3ccccc3)cc2N)nc1-c1ccccc1` [Compound 26c], the “binding to the haem moiety in the CYP51 active site (spectral type)” value in assay [3] is on record as “Soret Type II binding spectra”.

Regarding `Nc1cc(-c2ccccc2)ccc1Cn1cncc1CNc1ccc(Cl)c(Cl)c1` [Compound 36f], the EC50 in assay [1] was below 10 nM.

For the compound `Nc1cc(-c2ccccc2)ccc1Cn1cncc1CNc1ccc(Cl)c(-n2ccnc2)c1` [Compound 36h], the 50% effective concentration (EC50) in assay [1] was below 10 nM.

As for `Cc1cc(NCc2cncn2Cc2ccc(-c3ccccc3)cc2N)ccc1Cl` [Compound 36j], the “activity against T.cruzi amastigotes (in words)” value (“activity” below) in assay [1] is “excellent activity”.

In the case of `Nc1cc(-c2ccccc2)ccc1Cn1cncc1CNc1ccc(Cl)cc1` [Compound 36k], the “activity” value in assay [1] was “excellent activity”.

With `Nc1cc(-c2ccccc2)ccc1Cn1cncc1CNc1ccc(F)cc1` [Compound 36p], the “activity” value in assay [1] is reported as “excellent activity”.

As for `CC[C@@H]([C@H](C)O)n1ncn(-c2ccc(N3CCN(c4ccc(OC[C@@H]5CO[C@@](Cn6cncn6)(c6ccc(F)cc6F)C5)cc4)CC3)cc2)c1=O` [posaconazole], the EC50 in assay [4] was below 1 nM.
